Experimental data published in patent publication US20260035365A1, “1H-PYRROLO[3,2-B]PYRIDINE DERIVATIVES AS IRREVERSIBLE INHIBITORS OF MUTANT EGFR FOR THE TREATMENT OF CANCER” (Bayer Aktiengesellschaft, priority 2022, published 2026).
pIC50: −log10 of the molar value.

What was measured:
[1] = target: mutEGFR (D770_N771insSVD) (Homo sapiens, UniProt P00533, INS767SVD); assay: Exon20-mutant-EGFR (D770_N771insSVD) TR-FRET kinase assay; assay type: biochemical; settings: 2 mM ATP, 15 min preincubation
Description: Inhibitory activity of compounds of the present invention against an Epidermal Growth Factor Receptor (EGFR) with an insertion of the amino acids sequence SVD between D770 and N771 (SEQ ID No. 5) was quantified employing the TR-FRET based kinase activity assay as described in the following paragraphs.
A recombinant fusion protein of N-terminal Glutathion-S-Transferase (GST) and a fragment of human EGFR variant (amino acids R669 to A1210 with insertion of the amino acids sequence SVD between D770 and N771 (SEQ ID No. 5) (“EGFR ins SVD”), expressed in Sf9 insect cells and purified via affinity chromatography using Glutathion Sepharose as described above, was used as a kinase. As substrate for the kinase reaction the biotinylated peptide biotin-Ahx-AEEEEYFELVAKKK (C-terminus in amide form) (SEQ ID No. 6) was used which can be purchased e.g. form the company Biosynthan GmbH (Berlin-Buch, Germany).
For the assay 50 nl of a 100-fold concentrated solution of the test compound in DMSO was pipetted into either a black low volume 384 well microtiter plate or a black 1536 well microtiter plate (both Greiner Bio-One, Frickenhausen, Germany), 2 μl of a solution of EGFR in aqueous assay buffer [50 mM Hepes pH 7.0, 10 mM MgCl2, 1 mM dithiothreitol, 0.5 mM EGTA, 0.3 mM activated sodium ortho-vanadate, 0.005% (w/v) bovine serum albumin, 0.005% (v/v) Tween-20] were added and the mixture was incubated for 15 min at 22° C. to allow pre binding of the test compounds to the enzyme before the start of the kinase reaction. […] The concentration of EGFR was adjusted depending of the activity of the enzyme lot and was chosen appropriate to have the assay in the linear range, typical concentration was 15 pg/μl. The reaction was stopped by the addition of 3 μl of a solution of HTRF detection reagents (83.3 nM streptavidine-XL665 [Cisbio Bioassays, Codolet, France] and 1.67 nM PT66-Tb-Cryptate, a terbium-cryptate labelled anti-phospho-tyrosine antibody from Cisbio Bioassays [instead of the PT66 Tb cryptate PT66 Eu Chelate from Perkin Elmer can also be used]) in an aqueous EDTA-solution (133.3 mM EDTA, 0.2% (w/v) bovine serum albumin in 50 mM HEPES pH 7.5).
The resulting mixture was incubated 1 h at 22° C. to allow the binding of the biotinylated phosphorylated peptide to the streptavidine-XL665 and the PT66-Tb-Cryptate. Subsequently, the amount of phosphorylated substrate was evaluated by measurement of the resonance energy transfer from the PT66-Tb-Cryptate to the streptavidine-XL665. Therefore, the fluorescence emissions at 620 nm and 665 nm after excitation at 337 nm were measured in a HTRF reader, e.g. a Pherastar (BMG Labtechnologies, Offenburg, Germany) or a Viewlux (Perkin-Elmer). The ratio of the emissions at 665 nm and at […] was taken as the measure for the amount of phosphorylated substrate. The data were normalised (enzyme reaction without inhibitor=0% inhibition, all other assay components but no enzyme=100% inhibition).

[2] = tested on: BA/F3 (insSVD) cells; assay: Ba/F3 cell survival assay (Cell Titer-Glo), EGFR-insSVD; assay type: cell-based; settings: without IL-3, with EGF
Protocol: 293T cells from ATCC were transfected with pBABEpuro expression constructs for WT EGFR or EGFR-insSVD, or EGFR-insSVD T790M, and pCL-Eco packaging vector using Fugene-6 transfection reagent from Promega. Plates were incubated at 37° C. for 48 h. Retrovirus was harvested by filtering the media supernatant through a 0.45 μm filter.
Ba/F3 cells purchased from DSMZ were grown in RPMI+10% FBS+10 ng/mL IL-3 and infected with filtered retroviral supernatant at a 1:2 dilution. Polybrene was added to a concentration of 8 μg/mL, plates were spun for 90 min, and incubated for 16 h at 37° C. 2 μg/mL puromycin was added to the infected cells 24 h after infection and cells were continually grown in the presence of puromycin and 10 ng/mL IL-3. Following stably expressing Ba/F3 cell lines were generated: Ba/F3-EGFR-WT, Ba/F3-EGFR-insSVD, Ba/F3-EGFR-insSVD T790M, (Ba/F3-vector-control).
For cell survival assays, Ba/F3 cells were grown to a density of 1-2 million cells per mL, spun down and resuspended in media without IL-3, and replated at a concentration of 200,000-500,000 cells per mL. The cells ectopically expressing WT EGFR, EGFR-insSVD, or EGFR-insSVD T790M were plated with 10 ng/mL Millipore Culture grade EGF. The cells ectopically expressing pBABEpuro empty vector were plated with 10 ng/mL IL-3.
2 days later, cells were plated in 50 μL in a 384 well plate at a concentration of 4000 cells per well for cells assayed in the absence of IL-3 and 2000 cells per well for cells assayed in the presence of IL-3. 100 nL of compound was added to each well using a 100 nL pin head, and plates were incubated at 37° C. for 48 h.
Cell viability was measured by adding 20 μL of Cell Titer-Glo Luminescent Cell Viability Reagent diluted 1:3 in PBS. Plates were sealed with Perkin Elmer Top-Seal, inverted several times to mix, and immediately centrifuged at 1000 rpm for 2 min. Plates were incubated in low light conditions for 8-10 min and luminescence was measured.

[3] = target: mutEGFR (D770_N771insNPG, T790); assay: mutEGFR (D770_N771insNPG, T790) kinase assay; assay type: biochemical, human
Chain of mutEGFR (D770_N771insNPG, T790) (P00533 with tags, fused parts or gaps INS770NPG limits assumed): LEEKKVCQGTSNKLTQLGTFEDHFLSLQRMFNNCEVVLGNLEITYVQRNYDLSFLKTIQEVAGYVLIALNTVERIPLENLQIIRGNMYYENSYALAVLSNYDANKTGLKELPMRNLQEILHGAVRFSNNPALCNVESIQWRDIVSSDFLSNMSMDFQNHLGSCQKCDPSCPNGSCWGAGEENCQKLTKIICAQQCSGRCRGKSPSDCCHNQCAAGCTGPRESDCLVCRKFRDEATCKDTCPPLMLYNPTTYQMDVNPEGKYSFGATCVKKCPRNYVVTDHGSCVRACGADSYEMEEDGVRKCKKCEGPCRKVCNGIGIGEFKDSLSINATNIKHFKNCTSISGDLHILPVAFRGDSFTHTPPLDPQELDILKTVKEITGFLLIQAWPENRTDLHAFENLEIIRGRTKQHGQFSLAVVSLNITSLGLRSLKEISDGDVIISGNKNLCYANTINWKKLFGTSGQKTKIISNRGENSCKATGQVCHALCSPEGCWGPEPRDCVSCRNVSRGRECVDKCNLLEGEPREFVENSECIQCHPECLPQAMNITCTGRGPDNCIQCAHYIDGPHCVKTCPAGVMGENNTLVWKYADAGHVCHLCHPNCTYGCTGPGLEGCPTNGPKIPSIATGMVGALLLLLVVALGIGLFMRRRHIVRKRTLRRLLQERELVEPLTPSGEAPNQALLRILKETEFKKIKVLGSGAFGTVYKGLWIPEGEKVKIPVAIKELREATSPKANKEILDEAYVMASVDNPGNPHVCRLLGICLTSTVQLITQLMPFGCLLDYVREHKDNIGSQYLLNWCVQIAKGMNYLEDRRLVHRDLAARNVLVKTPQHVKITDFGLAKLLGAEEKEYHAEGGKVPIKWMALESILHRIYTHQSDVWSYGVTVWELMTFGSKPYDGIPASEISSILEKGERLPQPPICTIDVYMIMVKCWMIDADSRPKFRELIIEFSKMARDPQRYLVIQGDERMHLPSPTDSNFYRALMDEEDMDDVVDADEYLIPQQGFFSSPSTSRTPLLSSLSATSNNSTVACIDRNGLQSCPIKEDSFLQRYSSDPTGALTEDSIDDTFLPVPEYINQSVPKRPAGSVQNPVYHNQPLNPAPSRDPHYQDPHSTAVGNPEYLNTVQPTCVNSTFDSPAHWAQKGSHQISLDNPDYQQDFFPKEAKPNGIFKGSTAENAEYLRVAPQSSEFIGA

Chain of mutEGFR (D770_N771insSVD) (P00533 with tags, fused parts or gaps INS767SVD limits assumed): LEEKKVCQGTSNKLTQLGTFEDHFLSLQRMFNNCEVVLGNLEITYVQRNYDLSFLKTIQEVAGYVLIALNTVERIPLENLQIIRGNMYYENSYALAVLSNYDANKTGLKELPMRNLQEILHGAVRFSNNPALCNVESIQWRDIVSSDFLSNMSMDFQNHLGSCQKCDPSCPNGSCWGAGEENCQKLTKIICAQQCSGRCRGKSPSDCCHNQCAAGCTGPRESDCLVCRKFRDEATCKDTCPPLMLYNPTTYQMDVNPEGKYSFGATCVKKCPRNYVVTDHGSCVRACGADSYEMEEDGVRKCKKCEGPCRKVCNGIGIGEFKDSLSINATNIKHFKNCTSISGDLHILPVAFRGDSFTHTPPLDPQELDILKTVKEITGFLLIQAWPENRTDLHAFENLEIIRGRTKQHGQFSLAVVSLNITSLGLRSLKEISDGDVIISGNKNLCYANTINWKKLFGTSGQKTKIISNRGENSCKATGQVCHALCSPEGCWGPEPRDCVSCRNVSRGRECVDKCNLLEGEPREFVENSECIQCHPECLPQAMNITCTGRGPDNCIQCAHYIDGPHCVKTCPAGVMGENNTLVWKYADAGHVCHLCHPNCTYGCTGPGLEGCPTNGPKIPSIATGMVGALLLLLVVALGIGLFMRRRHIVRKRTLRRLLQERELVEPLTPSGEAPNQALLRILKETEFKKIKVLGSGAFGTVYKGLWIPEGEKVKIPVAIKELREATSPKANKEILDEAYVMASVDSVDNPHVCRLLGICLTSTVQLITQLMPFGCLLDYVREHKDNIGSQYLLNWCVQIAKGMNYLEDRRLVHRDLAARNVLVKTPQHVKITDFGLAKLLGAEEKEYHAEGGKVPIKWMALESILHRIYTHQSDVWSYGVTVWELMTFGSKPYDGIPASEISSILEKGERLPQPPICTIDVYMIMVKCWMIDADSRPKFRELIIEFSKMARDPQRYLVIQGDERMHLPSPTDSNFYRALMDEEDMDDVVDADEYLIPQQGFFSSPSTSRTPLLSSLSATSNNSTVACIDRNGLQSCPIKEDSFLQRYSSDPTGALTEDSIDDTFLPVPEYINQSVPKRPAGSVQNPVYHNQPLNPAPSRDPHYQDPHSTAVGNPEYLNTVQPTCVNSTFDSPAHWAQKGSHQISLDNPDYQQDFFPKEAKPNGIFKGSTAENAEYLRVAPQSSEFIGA

SMILES | pIC50 [1] | pIC50 ([2]; 48 h) | pIC50 [3] | pIC50 ([2]; Mus musculus, BaF3, 48 h)
C=CC(=O)N1C[C@@H](N(C)CCN(C)C)C[C@H]1COc1cnccc1-c1[nH]c2cccnc2c1-c1ccccc1 (single isomer, unassigned) [Example 132] | 8.03 | 6.74 | 7.56 | –
C=CS(=O)(=O)N(C)CCOc1cnccc1-c1[nH]c2cccnc2c1-c1cccc(C(F)(F)F)c1 [Example 66, N-methyl-N-{2-[(4-{3-[3-(trifluoromethyl)phenyl]-1H-pyrrolo[3,2-b]pyridin-2-yl}pyridin-3-yl)oxy]ethyl}ethenesulfonamide] | 8.58 | – | 8.18 | 6.38
C=CC(=O)N1CCC[C@H]1COc1cnccc1-c1[nH]c2cccnc2c1-c1cccc(Cl)c1Cl [Example 85, 1-{(2S)-2-[({4-[3-(2,3-dichlorophenyl)-1H-pyrrolo[3,2-b]pyridin-2-yl]pyridin-3-yl}oxy)methyl]pyrrolidin-1-yl}prop-2-en-1-one] | 9.30 | – | 8.44 | 7.25
C=CC(=O)N1CCC[C@H]1COc1cnccc1-c1[nH]c2cccnc2c1-c1ccc2cc[nH]c2c1 [Example 84, 1-{(2S)-2-[({4-[3-(1H-indol-6-yl)-1H-pyrrolo[3,2-b]pyridin-2-yl]pyridin-3-yl}oxy)methyl]pyrrolidin-1-yl}prop-2-en-1-one] | 7.49 | – | 6.81 | 5.45
C=CC(=O)N1CCC[C@H]1COc1cncc(F)c1-c1[nH]c2cccnc2c1-c1cc(Cl)ccc1F [Example 129, 1-{(2S)-2-[({4-[3-(5-chloro-2-fluorophenyl)-1H-pyrrolo[3,2-b]pyridin-2-yl]-5-fluoropyridin-3-yl}oxy)methyl]pyrrolidin-1-yl}prop-2-en-1-one] | 9.00 | – | 7.03 | 6.96
CN(C)C/C=C/C(=O)N1CCOCC1COc1cnccc1-c1[nH]c2cccnc2c1-c1ccccc1 (stereo not drawn) [Example 150, (2E)-4-(dimethylamino)-1-[3-({[4-(3-phenyl-1H-pyrrolo[3,2-b]pyridin-2-yl)pyridin-3-yl]oxy}methyl)morpholin-4-yl]but-2-en-1-one] | 5.33 | – | < 4.70 | 5.01
C=CS(=O)(=O)N(C)CCOc1cnccc1-c1[nH]c2cccnc2c1-c1cc(Cl)cc(Cl)c1 [Example 75, N-[2-({4-[3-(3,5-dichlorophenyl)-1H-pyrrolo[3,2-b]pyridin-2-yl]pyridin-3-yl}oxy)ethyl]-N-methylethenesulfonamide] | 7.35 | – | 7.58 | 5.69
C=CS(=O)(=O)N(C)CCOc1cnccc1-c1[nH]c2cccnc2c1-c1cc(Cl)ccc1Cl [Example 71, N-[2-({4-[3-(2,5-dichlorophenyl)-1H-pyrrolo[3,2-b]pyridin-2-yl]pyridin-3-yl}oxy)ethyl]-N-methylethenesulfonamide] | 8.27 | – | 8.07 | 6.39
C=CS(=O)(=O)N(C)CCOc1cnccc1-c1[nH]c2cccnc2c1-c1cc(C)cc(F)c1 [Example 65, N-[2-({4-[3-(3-fluoro-5-methylphenyl)-1H-pyrrolo[3,2-b]pyridin-2-yl]pyridin-3-yl}oxy)ethyl]-N-methylethenesulfonamide] | 8.61 | – | 8.14 | 6.57
C=CC(=O)N1CCC[C@H]1COc1cnccc1-c1[nH]c2cccnc2c1-c1ccccc1Cl [Example 88, 1-{(2S)-2-[({4-[3-(2-chlorophenyl)-1H-pyrrolo[3,2-b]pyridin-2-yl]pyridin-3-yl}oxy)methyl]pyrrolidin-1-yl}prop-2-en-1-one] | 8.72 | – | 7.97 | 6.78
C=CC(=O)N1CCC(Oc2cnccc2-c2[nH]c3cccnc3c2-c2cccc(Cl)c2)C1 (racemic) [Example 119, 1-[(3RS)-3-({4-[3-(3-chlorophenyl)-1H-pyrrolo[3,2-b]pyridin-2-yl]pyridin-3-yl}oxy)pyrrolidin-1-yl]prop-2-en-1-one] | 7.85 | – | 7.24 | 6.26
C=CC(=O)N1CCC(Oc2cnccc2-c2[nH]c3cccnc3c2-c2cc(C)ccc2F)C1 (racemic) [Example 124, 1-[(3RS)-3-({4-[3-(2-fluoro-5-methylphenyl)-1H-pyrrolo[3,2-b]pyridin-2-yl]pyridin-3-yl}oxy)pyrrolidin-1-yl]prop-2-en-1-one] | 7.58 | – | 6.92 | 6.04
C=CC(=O)N(C)CCOc1cnccc1-c1[nH]c2cccnc2c1-c1ccc2cc[nH]c2c1 [Example 16, N-[2-({4-[3-(1H-indol-6-yl)-1H-pyrrolo[3,2-b]pyridin-2-yl]pyridin-3-yl}oxy)ethyl]-N-methylprop-2-enamide] | 8.12 | – | 7.49 | 6.23
C=CC(=O)N(C)CCOc1cnccc1-c1[nH]c2cccnc2c1-c1cccc(C(C)C)c1 [Example 55, N-methyl-N-{2-[(4-{3-[3-(propan-2-yl)phenyl]-1H-pyrrolo[3,2-b]pyridin-2-yl}pyridin-3-yl)oxy]ethyl}prop-2-enamide] | 6.93 | – | 6.22 | 5.52
C=CC(=O)N(C)CCOc1cnccc1-c1[nH]c2cccnc2c1-c1cc(F)cc(F)c1 [Example 52, N-[2-({4-[3-(3,5-difluorophenyl)-1H-pyrrolo[3,2-b]pyridin-2-yl]pyridin-3-yl}oxy)ethyl]-N-methylprop-2-enamide] | 7.11 | – | 6.69 | 5.51
C=CC(=O)N1C=C(F)C[C@H]1COc1cnccc1-c1[nH]c2cccnc2c1-c1ccccc1 [Example 113, 1-[(2S)-4-fluoro-2-({[4-(3-phenyl-1H-pyrrolo[3,2-b]pyridin-2-yl)pyridin-3-yl]oxy}methyl)-2,3-dihydro-1H-pyrrol-1-yl]prop-2-en-1-one] | 9.94 | – | 9.14 | 8.00
C=CC(=O)N1CCOCC1COc1cnccc1-c1[nH]c2cccnc2c1-c1cc(Cl)ccc1F (stereo not drawn) [Example 151, 1-{3-[({4-[3-(5-chloro-2-fluorophenyl)-1H-pyrrolo[3,2-b]pyridin-2-yl]pyridin-3-yl}oxy)methyl]morpholin-4-yl}prop-2-en-1-one] | 7.96 | – | 7.09 | 6.55
C=CC(=O)N1CCC[C@H]1COc1cnccc1-c1[nH]c2cccnc2c1-c1cc(C(F)(F)F)ccc1F [Example 76, 1-[(2S)-2-{[(4-{3-[2-fluoro-5-(trifluoromethyl)phenyl]-1H-pyrrolo[3,2-b]pyridin-2-yl}pyridin-3-yl)oxy]methyl}pyrrolidin-1-yl]prop-2-en-1-one] | 8.56 | – | 8.02 | 7.01
